PubChem BioAssay AID1963958 (Molecular Pharmacology Branch, DTP, NCI, 2024)

Tested on: MDA-MB-231 multicell spheroids, viability
Experiment: Anticancer human tumor MDA-MB-231 cell line growth inhibition [PI3K];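 note: spheroids exposed to agents for seven days before reading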;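 for viability, T/C: percent of vehicle control luminescence with DMSO treated spheroids as 100%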
Settings: for IC50: curve of first compound; for viability, T/C: stronger effect = lower value
Summary of the method: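 Agents were dosed from a top concentration near clinical Cmax (otherwise 10 microM) in half-log decrements, alone or combined with PI3K inhibitors. The spheroids contain tumor cells plus endothelial (HUVEC) and MSC stroma; viability is measured.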

[1] = second compound 0.00316 µM, first compound 0.0316 µM
[2] = second compound 0.00316 µM, first compound 0.1 µM
[3] = second compound 0.00316 µM, first compound 0.316 µM
[4] = second compound 0.00316 µM, first compound 1 µM
[5] = second compound 0.00316 µM, first compound 3.16 µM
[6] = second compound 0.00316 µM, first compound 10 µM
[7] = second compound 0.01 µM, first compound 0.0316 µM
[8] = second compound 0.01 µM, first compound 0.1 µM
[9] = second compound 0.01 µM, first compound 0.316 µM
[10] = second compound 0.01 µM, first compound 1 µM
[11] = second compound 0.01 µM, first compound 3.16 µM
[12] = second compound 0.01 µM, first compound 10 µM
[13] = second compound 0.0316 µM, first compound 0.0316 µM
[14] = second compound 0.0316 µM, first compound 0.1 µM
[15] = second compound 0.0316 µM, first compound 0.316 µM
[16] = second compound 0.0316 µM, first compound 1 µM
[17] = second compound 0.0316 µM, first compound 3.16 µM
[18] = second compound 0.0316 µM, first compound 10 µM
[19] = second compound 0.1 µM, first compound 0.0316 µM
[20] = second compound 0.1 µM, first compound 0.1 µM
[21] = second compound 0.1 µM, first compound 0.316 µM
[22] = second compound 0.1 µM, first compound 1 µM
[23] = second compound 0.1 µM, first compound 3.16 µM
[24] = second compound 0.1 µM, first compound 10 µM
[25] = second compound 0.316 µM, first compound 0.0316 µM
[26] = second compound 0.316 µM, first compound 0.1 µM
[27] = second compound 0.316 µM, first compound 0.316 µM
[28] = second compound 0.316 µM, first compound 1 µM
[29] = second compound 0.316 µM, first compound 3.16 µM
[30] = second compound 0.316 µM, first compound 10 µM
[31] = second compound 1 µM, first compound 0.0316 µM
[32] = second compound 1 µM, first compound 0.1 µM
[33] = second compound 1 µM, first compound 0.316 µM
[34] = second compound 1 µM, first compound 1 µM
[35] = second compound 1 µM, first compound 3.16 µM
[36] = second compound 1 µM, first compound 10 µM

Compound `C#Cc1c(F)ccc2cc(O)cc(-c3ncc4c(N5CC6CCC(C5)N6)nc(OCC56CCCN5CC(F)C6)nc4c3F)c12` (stereo unspecified) + CC(Nc1ccc2c(c1)OCCn1cc(N3C(=O)OCC3C(F)F)nc1-2)C(N)=O has an IC50 (second compound 0.00316 µM) of 9.28 µM, an IC50 (second compound 0.01 µM) of 8.37 µM and an IC50 (second compound 0.0316 µM) of 4.68 µM. For the same compound, the IC50 (second compound 0.1 µM) was 3.36 µM, the IC50 (second compound 0.316 µM) was 1.54 µM and the IC50 (second compound 1 µM) was 1.06 µM. It also gave a viability, T/C [1] of 103%, a viability, T/C [2] of 99% and a viability, T/C [3] of 96.1%. It also gave a viability, T/C [4] of 86.7%, a viability, T/C [5] of 69.8% and a viability, T/C [6] of 48.6%. The viability, T/C [7] was 94%, the viability, T/C [8] was 94.8% and the viability, T/C [9] was 87.6%. For the same compound, the viability, T/C [10] was 78.3%, the viability, T/C [11] was 63.9% and the viability, T/C [12] was 47.4%. It also gave a viability, T/C [13] of 74.2%, a viability, T/C [14] of 83.1% and a viability, T/C [15] of 74.4%. For the same compound, the viability, T/C [16] was 61.4%, the viability, T/C [17] was 56.7% and the viability, T/C [18] was 41.8%. The viability, T/C [19] was 70.3%, the viability, T/C [20] was 65.3% and the viability, T/C [21] was 64.5%. The viability, T/C [22] was 56.8%, the viability, T/C [23] was 53.7% and the viability, T/C [24] was 35.5%. It also gave a viability, T/C [25] of 67.6%, a viability, T/C [26] of 67.1% and a viability, T/C [27] of 58.8%. It also gave a viability, T/C [28] of 54.2%, a viability, T/C [29] of 44% and a viability, T/C [30] of 33.4%. It also gave a viability, T/C [31] of 60.7%, a viability, T/C [32] of 54.4% and a viability, T/C [33] of 55.4%. It also gave a viability, T/C [34] of 51.4%, a viability, T/C [35] of 41.5% and a viability, T/C [36] of 28%.

`CC(Cn1ccc(-c2ccc(C#N)c(Cl)c2)n1)NC(=O)c1cc(C(C)O)[nH]n1` (stereo unspecified) + CC(Nc1ccc2c(c1)OCCn1cc(N3C(=O)OCC3C(F)F)nc1-2)C(N)=O was tested, and the IC50 (second compound 0.00316 µM) was > 10 µM, the IC50 (second compound 0.01 µM) was > 10 µM and the IC50 (second compound 0.0316 µM) was > 10 µM. For the same compound, the IC50 (second compound 0.1 µM) was > 10 µM, the IC50 (second compound 0.316 µM) was > 10 µM and the IC50 (second compound 1 µM) was > 10 µM. The viability, T/C [1] was 102%, the viability, T/C [2] was 95.6% and the viability, T/C [3] was 104%. It also gave a viability, T/C [4] of 95%, a viability, T/C [5] of 96.5% and a viability, T/C [6] of 88.1%. It also gave a viability, T/C [7] of 96%, a viability, T/C [8] of 97.5% and a viability, T/C [9] of 91.8%. The viability, T/C [10] was 94.6%, the viability, T/C [11] was 84.4% and the viability, T/C [12] was 77%. The viability, T/C [13] was 83.2%, the viability, T/C [14] was 81.7% and the viability, T/C [15] was 82.4%. For the same compound, the viability, T/C [16] was 77%, the viability, T/C [17] was 74.3% and the viability, T/C [18] was 64%. The viability, T/C [19] was 80.1%, the viability, T/C [20] was 69.6% and the viability, T/C [21] was 72%. The viability, T/C [22] was 69.9%, the viability, T/C [23] was 64.8% and the viability, T/C [24] was 50.3%. It also gave a viability, T/C [25] of 63.5%, a viability, T/C [26] of 63.3% and a viability, T/C [27] of 65.1%. The viability, T/C [28] was 61.2%, the viability, T/C [29] was 60.8% and the viability, T/C [30] was 53.6%. The viability, T/C [31] was 66%, the viability, T/C [32] was 56.3% and the viability, T/C [33] was 64.5%. The viability, T/C [34] was 60.2%, the viability, T/C [35] was 56.1% and the viability, T/C [36] was 48.8%.

`CC1(C)CCC(Nc2ncc(C(F)(F)F)c(-c3c[nH]c4c(P(C)(C)=O)c(C#N)ccc34)n2)CN1` (stereo unspecified) + CC(Nc1ccc2c(c1)OCCn1cc(N3C(=O)OCC3C(F)F)nc1-2)C(N)=O was tested, and the IC50 (second compound 0.00316 µM) was < 0.0316 µM, the IC50 (second compound 0.01 µM) was < 0.0316 µM and the IC50 (second compound 0.0316 µM) was < 0.0316 µM. The IC50 (second compound 0.1 µM) was < 0.0316 µM, the IC50 (second compound 0.316 µM) was < 0.0316 µM and the IC50 (second compound 1 µM) was < 0.0316 µM. It also gave a viability, T/C [1] of 47.2%, a viability, T/C [2] of 47.7% and a viability, T/C [3] of 42.2%. For the same compound, the viability, T/C [4] was 48.2%, the viability, T/C [5] was 47.4% and the viability, T/C [6] was 4.16%. It also gave a viability, T/C [7] of 48.4%, a viability, T/C [8] of 44.9% and a viability, T/C [9] of 44.2%. For the same compound, the viability, T/C [10] was 46.7%, the viability, T/C [11] was 47.5% and the viability, T/C [12] was 3.26%. For the same compound, the viability, T/C [13] was 45.1%, the viability, T/C [14] was 42.1% and the viability, T/C [15] was 43.6%. It also gave a viability, T/C [16] of 45.2%, a viability, T/C [17] of 42.4% and a viability, T/C [18] of 3.28%. The viability, T/C [19] was 41.9%, the viability, T/C [20] was 39.6% and the viability, T/C [21] was 41.1%. It also gave a viability, T/C [22] of 37.8%, a viability, T/C [23] of 36.2% and a viability, T/C [24] of 2.99%. The viability, T/C [25] was 39.8%, the viability, T/C [26] was 38.9% and the viability, T/C [27] was 36.1%. For the same compound, the viability, T/C [28] was 37.4%, the viability, T/C [29] was 34.8% and the viability, T/C [30] was 2.9%. For the same compound, the viability, T/C [31] was 37.8%, the viability, T/C [32] was 36% and the viability, T/C [33] was 33.4%. It also gave a viability, T/C [34] of 34.6%, a viability, T/C [35] of 34.9% and a viability, T/C [36] of 2.74%.
